Values belong to the molecule of their own block, whether it stands above or below them.
Columns and labels:
PYR1-HAB1 = target: T1, PYR1-HAB1 (Arabidopsis thaliana, UniProt O49686); assay: Yeast two-hybrid BD-PYR1 / AD-HAB1 interaction, X-gal stain; format: cell-based; conditions: 10 μM, except epi-brassinolide (50 nM)
T1 construct: the Pyr1 open reading frame was PCR amplified from genomic DNA; expressed in transfected cells; host or cells: yeast strain Y190
T1 sequence (O49686 1-191): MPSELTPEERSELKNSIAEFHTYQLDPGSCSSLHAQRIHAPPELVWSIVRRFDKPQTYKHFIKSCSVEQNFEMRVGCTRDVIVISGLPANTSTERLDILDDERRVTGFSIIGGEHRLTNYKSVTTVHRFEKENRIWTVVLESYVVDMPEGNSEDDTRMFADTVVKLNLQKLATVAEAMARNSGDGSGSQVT
T1 sequence (Q9CAJ0 23-511 partner): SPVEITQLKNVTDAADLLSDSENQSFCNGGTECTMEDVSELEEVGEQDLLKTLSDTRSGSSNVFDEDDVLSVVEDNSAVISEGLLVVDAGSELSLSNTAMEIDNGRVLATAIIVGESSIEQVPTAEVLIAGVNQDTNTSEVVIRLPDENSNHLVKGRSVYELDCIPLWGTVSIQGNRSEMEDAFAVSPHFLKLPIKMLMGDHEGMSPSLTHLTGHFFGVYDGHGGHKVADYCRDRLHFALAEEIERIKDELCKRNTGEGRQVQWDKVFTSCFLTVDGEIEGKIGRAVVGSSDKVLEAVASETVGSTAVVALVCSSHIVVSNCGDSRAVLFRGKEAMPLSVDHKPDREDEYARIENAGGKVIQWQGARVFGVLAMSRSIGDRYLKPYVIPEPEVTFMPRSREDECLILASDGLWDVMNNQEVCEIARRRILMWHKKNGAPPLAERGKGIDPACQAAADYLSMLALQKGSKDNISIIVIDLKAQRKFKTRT
Description: (§1) Given that PYR1 is necessary for pyrabactin action and is a predicted ligand-binding protein, we hypothesized that pyrabactin agonizes ABA signaling by inducing a protein-protein interaction between PYR1 and a downstream effector. To test this, ˜2 million prey cDNA clones were screened against a PYR1 Y2H bait construct on media containing 10 μM pyrabactin. To create the PYR1 Y2H bait construct, the Pyr1 open reading frame was PCR amplified from genomic DNA and cloned to pGem-T easy vector (Promega). After sequence confirmation, the Pyr1 ORF was then cloned in-frame between EcoRI and SalI sites of the pBD-GAL4 Cam vector (Stratagene) and transformed into yeast strain Y190. For the screen, an etiolated seedling cDNA library (J. Kim, K., Harter, A., Theologis, Proc Natl Acad Sci USA 94, 11786 (Oct. 28, 1997)) (ABRC stock CD4-22) was used. The cDNA library was first converted from phage to plasmid DNA, yielding 7.6×10^7 transformants. Plasmid DNA prepared from library was then used to transform Y190 as described in the GAL4 Two-Hybrid system manual (Stratagene). For each screen, 40 μg of prey plasmid was transformed into 1 ml of competent Y190 cell harboring bait construct and then grown on SD agar plates lacking His, Leu, and Trp, but containing 15 mM 3-AT and 10 μM pyrabactin. After 4 days incubation at 30° C., well-grown colonies were rescued and interactions validated using filter lift assay or chloroform-agarose overlay method and X-Gal staining. This identified two pyrabactin-dependent hits which sequencing determined encoded cDNAs for the PP2C HAB1, a close relative of the well-characterized ABA response factor ABI1 (A. Saez et al., The Plant Journal 37, 354 (2004); N. Leonhardt et al., THE PLANT CELL 16, 596 (2004)). Next, Y2H strains expressing an AD-HAB1 fusion protein and a BD-PYR1 fusion protein were grown on plates and tested for interactions in response to various compounds, all at 10 μM except for epi-brassinolide (50 nM) and dimethyl sulfoxide (DMSO) (carrier solvent, 1%). […] Thus, PYR1 interacts with HAB1 in a (+)-ABA dependent fashion.

Arabidopsis seeds = assay: Seed germination inhibition; format: in vivo; conditions: in vivo
Description: FIG. 1. Pyrabactin is a seed selective ABA agonist. (A) Structures of molecules described in this study. (B) Pyrabactin activity is suppressed by abi1-1. Seeds of the genotype shown at top were imbibed on media containing 25 μM pyrabactin and scored for germination 4 days after stratification. Shown at bottom are IC50 values for pyrabactin's germination effect on the genotypes characterized. (C) Microarray comparison of pyrabactin and ABA treatments in seeds. The Y-axis plots the log2 transformed value for a probe's response to 25 μM pyrabactin (relative to untreated control) and the X-axis a probe's response to 1 μM ABA. […] (D) Microarray comparison of cycloheximide and ABA responses in seeds. […] (E) Microarray comparison of pyrabactin and ABA responses in seedlings. Seven-day old seedlings were transferred to 10 μM ABA or 50 μM pyrabactin containing plates for 24 hours and then mRNA samples profiled. Inset in each scatter plot is the Pearson correlation coefficient for each comparison. Detailed microarray methods are described in the Examples section.
FIG. 2. PYR1 encodes an ABA responsive START-domain protein. (A) Pyr1 alleles. Shown are the allele names, strain names (in parentheses) and amino acid changes caused by the Pyr1 mutant alleles identified by screening for pyrabactin resistant mutations. (B) Pictographic representation of Pyr1 and Pyl1-Pyl4 expression values housed in public microarray databases. The heatmap shown at top right is for the first upper three panels and the bottom heatmap for the guard cell data. Plots were made using the eFP browser (D. Winter et al., PLoS ONE 2, e718 (2007)). (C) 35S::GFP-PYR1 complements pyr1-1. Seeds of the genotypes shown were stratified 4 days on 25 μM pyrabactin and then germinated at RT, 90% RH for 3 days in darkness. […] (D) Pyr/Pyls are required for normal ABA-induced gene expression in seedlings. Shown are qRT-PCR results for the ABA-responsive gene RD29. L, Ler; C, Col; and Q, quadruple mutant. (E) Pyr/Pyl genes are required for normal ABA-induced stress-induced gene expression in seedlings. Shown are qRT-PCR results for two ABA-responsive taqman probes, as described in the Examples section. L=Ler, C=Col, Q=quadruple mutant.
As part of an earlier effort, we identified a germination inhibitor named pyrabactin (Y. Zhao et al., Nat Chem Biol 3, 716 (2007)). […] To test this hypothesis, we examined the pyrabactin sensitivity of mutant lines with altered ABA signaling, biosynthesis or gibberellic acid (GA) perception.
We next performed microarray experiments to evaluate the similarity of the transcriptional responses induced by ABA and pyrabactin treatments. For microarray, tissue was prepared and RNA extracted from Columbia wild type seeds sown on 0.5×MS media (˜2500 seeds per 150 mm plate) containing either 1 μM ABA, 25 μM pyrabactin, 25 μM 2,4-Dinitrophenol (DNP), 1 μM cycloheximide, 2 μM methotrexate or 1% DMSO control plates (all chemicals are dissolved in DMSO). The concentrations utilized for these experiments were normalized for germination inhibition activity by dose curve analyses, i.e. the amount of both compounds required to ensure 100% inhibition of germination when scored 3 days post-imbibition. ABA (±stereoisomers), DNP, cycloheximide and methotrexate were purchased from Sigma Aldrich. Seeds were stratified for 4 days and then incubated in the dark at room temperature for 24 hours. […]

PYL3-HAB1 = target: T2, PYL3-HAB1 (Arabidopsis thaliana, UniProt Q9SSM7); assay: Yeast two-hybrid BD-PYL3 / AD-HAB1 interaction; format: cell-based
T2 construct: BD-PYR/PYL fusion proteins were constructed in the same manner as for BD-PYR1 above; expressed in transfected cells; host or cells: yeast (Y190, as for BD-PYR1)
T2 sequence (Q9SSM7 1-209): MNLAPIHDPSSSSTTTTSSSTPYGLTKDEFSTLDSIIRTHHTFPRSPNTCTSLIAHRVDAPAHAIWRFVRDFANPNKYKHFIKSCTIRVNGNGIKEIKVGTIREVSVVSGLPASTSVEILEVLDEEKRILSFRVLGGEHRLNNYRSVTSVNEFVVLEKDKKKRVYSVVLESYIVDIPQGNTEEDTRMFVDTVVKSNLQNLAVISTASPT
T2 sequence (Q9CAJ0 23-511 partner): T1 sequence (Q9CAJ0 23-511 partner)
Description: as §1
(§2) To see if ABA and pyrabactin responsiveness is unique to PYR1, we tested 11 of the 13 PYL proteins as described above, using Y2H strains expressing an AD-HAB1 fusion protein and a BD-PYR/PYL fusion protein (listed at the left of FIG. 3A). BD-PYR/PYL fusion proteins were constructed in the same manner as for BD-PYR1 above. […] Of these, only Pyr1 is highly transcribed in seeds, which likely explains why mutations in Pyr1 cause the seeds to be insensitive to pyrabactin. […] However the interactions of PYLs 5-12 with the PP2Cs are indicative that the entire protein family is likely to share a similar mechanism of action involving PP2C modulation, as we describe below. Thus, we conclude that entire family modulates ABA responses via PP2C interactions.
The yeast strains expressing PYR/PYL receptors and type 2 C protein phosphatases were also used to screen HPLC-fractionated plant extracts for the presence of endogenous compounds that activate PYL/PYL receptors PYR1, PYL2, PYL3, and/or PYL4. HPLC fractionation of extracts was used to identify compounds different from abscisic acid (the known agonist). […] Purification of the agonist was achieved via multiple rounds of chromatographic separation coupled to yeast two hybrid assays that informed the fractions to move forward at each step of the purification. The structure of the purified agonist was deduced by X-ray crystallography of crystalline purified agonist.

PYL4-HAB1 = target: T3, PYL4-HAB1 (Arabidopsis thaliana, UniProt O80920); assay: Yeast two-hybrid BD-PYL4 / AD-HAB1 interaction; format: cell-based
T3 construct: BD-PYR/PYL fusion proteins were constructed in the same manner as for BD-PYR1 above; expressed in transfected cells; host or cells: yeast (Y190, as for BD-PYR1)
T3 sequence (O80920 1-207): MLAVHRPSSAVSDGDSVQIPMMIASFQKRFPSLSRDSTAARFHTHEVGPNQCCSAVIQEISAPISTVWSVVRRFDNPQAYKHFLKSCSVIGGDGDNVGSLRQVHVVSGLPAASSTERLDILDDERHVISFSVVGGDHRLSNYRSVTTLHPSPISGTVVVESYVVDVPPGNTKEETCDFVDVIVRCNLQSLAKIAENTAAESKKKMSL
T3 sequence (Q9CAJ0 23-511 partner): T1 sequence (Q9CAJ0 23-511 partner)
Description: as §1
as §2, with “Thus, we conclude that entire family modulates ABA responses via PP2C interactions.” left out

PYL2-HAB1 = target: T4, PYL2-HAB1 (Arabidopsis thaliana, UniProt O80992); assay: Yeast two-hybrid BD-PYL2 / AD-HAB1 interaction, X-gal stain; format: cell-based; conditions: 10 μM
T4 construct: BD-PYR/PYL fusion proteins were constructed in the same manner as for BD-PYR1 above; expressed in transfected cells; host or cells: yeast (Y190, as for BD-PYR1)
T4 sequence (O80992 1-190): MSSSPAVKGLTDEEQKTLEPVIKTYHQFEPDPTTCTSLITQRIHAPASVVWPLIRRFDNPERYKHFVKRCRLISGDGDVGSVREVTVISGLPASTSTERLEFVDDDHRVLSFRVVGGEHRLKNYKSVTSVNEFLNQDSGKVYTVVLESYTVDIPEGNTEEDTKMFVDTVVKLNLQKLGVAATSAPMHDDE
T4 sequence (Q9CAJ0 23-511 partner): T1 sequence (Q9CAJ0 23-511 partner)
Description: as §1, with “fashion. […]” for “fashion.”

[1] = plant extract screen and related commercial compounds

Molecule: O=C(O)COc1ccc(Cl)cc1Cl [2,4-D]
PYR1-HAB1 interaction by X-gal stain (PYR1-HAB1): neither (−)-ABA, kinetin, 2,4-D, Gibberellic acid (GA), epi-brassinolide (BR), methyl jasmonate (meJA) or apyrabactin showed activity

Molecule: C=C1C[C@]23C[C@@]1(O)CC[C@H]2[C@@]12C=C[C@H](O)[C@@](C)(C(=O)O1)[C@H]2[C@@H]3C(=O)O [Gibberellic acid]
PYR1-HAB1 interaction by X-gal stain (PYR1-HAB1): neither (−)-ABA, kinetin, 2,4-D, Gibberellic acid (GA), epi-brassinolide (BR), methyl jasmonate (meJA) or apyrabactin showed activity

Molecule: O=S(=O)(NCc1ccccc1)c1ccc(Br)c2ccccc12 [apyrabactin]
effect on germination (Arabidopsis seeds): inactive analog
PYR1-HAB1 interaction by X-gal stain (PYR1-HAB1): neither (−)-ABA, kinetin, 2,4-D, Gibberellic acid (GA), epi-brassinolide (BR), methyl jasmonate (meJA) or apyrabactin showed activity

PYL3 agonist activity in yeast two hybrid assays (PYL3-HAB1; [1]): PYL3/PYL4 selective agonist
PYL4 agonist activity in yeast two hybrid assays (PYL4-HAB1; [1]): PYL3/PYL4 selective agonist
Molecule: C=C(C(=O)O)[C@@H]1CC[C@@H](C)[C@@H]2CCC(C)=C[C@@H]21 [artemisinic acid]

Molecule: CC(C)[C@@H](C)[C@@H](O)[C@H](O)[C@@H](C)[C@H]1CC[C@H]2[C@@H]3COC(=O)[C@H]4C[C@H](O)[C@H](O)C[C@]4(C)[C@H]3CC[C@]12C [epi-brassinolide]
PYR1-HAB1 interaction by X-gal stain (PYR1-HAB1): neither (−)-ABA, kinetin, 2,4-D, Gibberellic acid (GA), epi-brassinolide (BR), methyl jasmonate (meJA) or apyrabactin showed activity

Molecule: c1coc(CNc2ncnc3[nH]cnc23)c1 [kinetin]
PYR1-HAB1 interaction by X-gal stain (PYR1-HAB1): neither (−)-ABA, kinetin, 2,4-D, Gibberellic acid (GA), epi-brassinolide (BR), methyl jasmonate (meJA) or apyrabactin showed activity

Molecule: CC/C=C\CC1C(=O)CCC1CC(=O)OC (stereo not shown) [methyl jasmonate]
PYR1-HAB1 interaction by X-gal stain (PYR1-HAB1): neither (−)-ABA, kinetin, 2,4-D, Gibberellic acid (GA), epi-brassinolide (BR), methyl jasmonate (meJA) or apyrabactin showed activity

Molecule: (−)-ABA
PYR1-HAB1 interaction by X-gal stain (PYR1-HAB1): neither (−)-ABA, kinetin, 2,4-D, Gibberellic acid (GA), epi-brassinolide (BR), methyl jasmonate (meJA) or apyrabactin showed activity
PYL2-HAB1 interaction by X-gal stain (PYL2-HAB1): respond
PYL3-HAB1 interaction by X-gal stain (PYL3-HAB1; 10 μM): respond
PYL4-HAB1 interaction by X-gal stain (PYL4-HAB1; 10 μM): respond

Source: patent US10221426B2, “Constitutively active PYR/PYL receptor proteins for improving plant stress tolerance” (The Regents of the University of California, priority 2009, dated 2019)
